Source: patent US20100009907A1, “Glucagon-Like Peptides and Uses Thereof” (AMYLIN PHARMACEUTICALS, INC., priority 2006, published 2010)
Where no end group is shown, it is not given here.

T1: RINm5f cells expressing endogenous GLP-1, calcitonin, and GIP receptors (Rattus norvegicus, UniProt P32301)
T1 construct: RINm5f cells expressing endogenous GLP-1, calcitonin, and GIP receptors; endogenous in cells; host or cells: RINm5f cells
T1 sequence (P32301 22-463): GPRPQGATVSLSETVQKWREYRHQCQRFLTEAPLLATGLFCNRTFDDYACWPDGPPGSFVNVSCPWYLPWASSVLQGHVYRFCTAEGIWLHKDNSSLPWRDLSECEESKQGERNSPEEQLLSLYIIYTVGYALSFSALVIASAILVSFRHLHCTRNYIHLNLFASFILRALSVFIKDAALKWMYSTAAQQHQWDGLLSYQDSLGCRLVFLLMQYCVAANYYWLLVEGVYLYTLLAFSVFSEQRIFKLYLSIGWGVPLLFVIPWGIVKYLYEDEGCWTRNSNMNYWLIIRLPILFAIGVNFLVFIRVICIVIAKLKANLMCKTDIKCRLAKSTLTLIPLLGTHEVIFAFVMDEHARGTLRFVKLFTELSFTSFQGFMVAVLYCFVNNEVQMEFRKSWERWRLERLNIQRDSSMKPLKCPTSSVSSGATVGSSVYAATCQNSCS

T2: GLP-1 receptor (RINm5F cell membranes) (Rattus norvegicus, UniProt P32301)
T2 construct: RINm5F insulinoma cells expressing endogenous GLP-1 receptors; endogenous in cells; host or cells: RINm5F cell membranes
T2 sequence (P32301 22-463): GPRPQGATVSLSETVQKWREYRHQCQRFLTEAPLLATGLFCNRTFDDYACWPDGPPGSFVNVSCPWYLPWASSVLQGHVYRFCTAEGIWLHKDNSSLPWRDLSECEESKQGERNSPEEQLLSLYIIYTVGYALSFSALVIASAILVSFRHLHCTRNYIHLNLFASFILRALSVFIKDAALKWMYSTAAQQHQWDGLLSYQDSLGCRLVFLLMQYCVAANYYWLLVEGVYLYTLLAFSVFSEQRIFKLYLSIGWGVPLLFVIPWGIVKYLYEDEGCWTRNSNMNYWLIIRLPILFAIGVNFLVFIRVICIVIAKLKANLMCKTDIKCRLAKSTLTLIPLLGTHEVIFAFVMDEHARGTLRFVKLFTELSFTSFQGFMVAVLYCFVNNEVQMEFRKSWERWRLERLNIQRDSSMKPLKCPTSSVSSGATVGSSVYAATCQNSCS

T3: GLP-1 receptor (endogenous, RINm5F cell membranes; rat thyroid carcinoma 6-23 clone 6 cells) (rat, UniProt P32301 22-463)
T3 sequence (looked up): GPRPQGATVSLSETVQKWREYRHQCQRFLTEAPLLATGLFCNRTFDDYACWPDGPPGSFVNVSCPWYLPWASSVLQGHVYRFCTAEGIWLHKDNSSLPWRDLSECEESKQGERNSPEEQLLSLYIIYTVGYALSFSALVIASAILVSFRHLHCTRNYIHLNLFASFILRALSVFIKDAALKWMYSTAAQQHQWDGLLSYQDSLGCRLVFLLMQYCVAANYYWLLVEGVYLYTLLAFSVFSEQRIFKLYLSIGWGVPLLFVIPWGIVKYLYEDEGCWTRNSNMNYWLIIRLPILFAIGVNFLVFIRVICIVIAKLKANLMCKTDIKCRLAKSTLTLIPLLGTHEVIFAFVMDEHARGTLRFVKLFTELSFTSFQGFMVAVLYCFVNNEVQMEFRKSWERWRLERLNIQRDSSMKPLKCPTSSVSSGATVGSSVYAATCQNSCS


How the values were obtained:
[1] = molecular target: T1, RINm5f cells expressing endogenous GLP-1, calcitonin, and GIP receptors; assay: GLP/GIP/CT cAMP (RIN) assay; type: cell-based
Description: In addition, receptor binding can be measured using cells prepared from confluent cultures of RINm5f cells expressing endogenous GLP-1, calcitonin, and GIP receptors. Cells, and peptide or buffer solution are combined in 384-well plates. After a 30-minute incubation at room temperature in air, cAMP content is measured as recommended in the Perkin-Elmer AlphaScreen kit instructions.
Cells, and peptide or buffer solutions are combined in 384-well plates and incubated at room temperature in air for 30-minutes. cAMP content can then be measured according to recommendations in the Perkin-Elmer AlphaScreen™ kit instructions using the Perkin Elmer Fusion fluorimeter and data are analyzed using XLfit software (IDBS).

[2] = molecular target: T2, GLP-1 receptor (RINm5F cell membranes); assay: GLP-1 receptor binding assay (GLP RBA), [125I]GLP-1 displacement; conditions: [125I]GLP-1 tracer
Description: Reaction mixtures are filtered through glass filter pads presoaked with 0.3% PEI solution and rinsed with ice-cold phosphate buffered saline. Bound counts are determined using a scintillation counter. Binding affinities are calculated using GraphPad Prism software (GraphPad Software, Inc., San Diego, Calif.).

[3] = molecular target: T3, GLP-1 receptor (endogenous, RINm5F cell …); assay: cell-based or functional assay
[4] = molecular target: T3, GLP-1 receptor (endogenous, RINm5F cell …); assay: displacement of [125I]GLP-1 from RINm5F cell membranes (GLP RBA)
Description: GLP-1 receptor binding activity and affinity can be measured using a binding displacement assay in which the receptor source is RINm5F cell membranes, and the ligand is [¹²⁵I]GLP-1. Homogenized RINm5F cell membranes are incubated in 20 mM HEPES buffer with 40,000 cpm [¹²⁵I]GLP-1 tracer, and varying concentrations of test compound for 60 minutes at 23° C. with constant mixing. Reaction mixtures are filtered through glass filter pads presoaked with 0.3% PEI solution and rinsed with ice-cold phosphate buffered saline. Bound counts are determined using a scintillation counter. Binding affinities are calculated using GraphPad Prism software (GraphPad Software, Inc., San Diego, Calif.).

Molecule | GLP/GIP/CT cAMP(RIN) EC50 [1] | IC50 [2] | also measured
HAEGTYTNDVTEYLEEKAAKEFIEWLIK-NH2 (C-terminus assumed) [compound 25] | 0.53 nM | – | –
CC[C@H](C)[C@H](NC(=O)[C@H](CC(C)C)NC(=O)[C@H](Cc1c[nH]c2ccccc12)NC(=O)[C@H](CC(=O)O)NC(=O)[C@@H](NC(=O)[C@H](Cc1ccccc1)NC(=O)[C@H](CCC(=O)O)NC(=O)[C@H](CCCCN)NC(=O)[C@H](C)NC(=O)[C@H](C)NC(=O)[C@H](CCCCN)NC(=O)[C@H](CCC(=O)O)NC(=O)[C@H](CC(=O)O)NC(=O)[C@H](CC(C)C)NC(=O)[C@H](CCC(N)=O)NC(=O)[C@H](CCC(N)=O)NC(=O)[C@@H](NC(=O)[C@@H](NC(=O)[C@H](CC(=O)O)NC(=O)[C@H](CO)NC(=O)[C@@H](NC(=O)[C@H](Cc1ccccc1)NC(=O)[C@@H](NC(=O)CNC(=O)[C@H](CCC(=O)O)NC(=O)[C@H](C)NC(=O)[C@@H](N)Cc1c[nH]cn1)[C@@H](C)O)[C@@H](C)O)C(C)C)[C@@H](C)O)[C@@H](C)CC)C(=O)N[C@@H](CC(N)=O)C(N)=O [compound 7] | 4.7 nM | 3 nM | –
HGEGTYTNDVTEYLEEKAAKEFIEWLIKGKPKKIRYS-NH2 (C-terminus assumed) [compound 26] | 0.967 nM | 0.11 nM | –
HAEGTFTSDVTQQLEEKAAKEFIEWLIKGKPKKIRYS-NH2 (C-terminus assumed) [compound 22] | 0.1 nM | – | –
HAEGTYTNDVTEYLEEKAAKEFIEWLIPKKIRYS-NH2 (C-terminus assumed) [compound 32] | – | 22 nM | –
HAEGTFTSDVTQQLDEKAAKEFIDWLINGGASKEIIS-NH2 (C-terminus assumed) [compound 12] | 0.29 nM | – | –
CC[C@H](C)[C@H](NC(=O)[C@H](CC(C)C)NC(=O)[C@H](Cc1c[nH]c2ccccc12)NC(=O)[C@H](CCC(=O)O)NC(=O)[C@@H](NC(=O)[C@H](Cc1ccccc1)NC(=O)[C@H](CCC(=O)O)NC(=O)[C@H](CCCCN)NC(=O)[C@H](C)NC(=O)[C@H](C)NC(=O)[C@H](CCCCN)NC(=O)[C@H](CCC(=O)O)NC(=O)[C@H](CCC(=O)O)NC(=O)[C@H](CC(C)C)NC(=O)[C@H](Cc1ccc(O)cc1)NC(=O)[C@H](CCC(=O)O)NC(=O)[C@@H](NC(=O)[C@@H](NC(=O)[C@H](CC(=O)O)NC(=O)[C@H](CC(N)=O)NC(=O)[C@@H](NC(=O)[C@H](Cc1ccc(O)cc1)NC(=O)[C@@H](NC(=O)CNC(=O)[C@H](CCC(=O)O)NC(=O)[C@H](C)NC(=O)[C@@H](N)Cc1c[nH]cn1)[C@@H](C)O)[C@@H](C)O)C(C)C)[C@@H](C)O)[C@@H](C)CC)C(=O)N[C@@H](CCCCN)C(=O)NCC(=O)N[C@@H](CCCCN)C(=O)N1CCC[C@H]1C(=O)N[C@@H](CCCCN)C(=O)N[C@@H](CCCCN)C(=O)N[C@H](C(=O)N[C@@H](CCCNC(=N)N)C(=O)N[C@@H](Cc1ccc(O)cc1)C(=O)N[C@@H](CO)C(N)=O)[C@@H](C)CC [compound 2] | 0.36 nM | 0.1 nM | –
HADGTYTSDVSSYLQDQAAKDFITWLKSGQPKPDAVET-NH2 [compound 48] | 14 nM | 34 nM | –
HAEGTYTNDVTEYLEEKAAKEFIEWLINGGPSKEIIS-NH2 (C-terminus assumed) [compound 21] | 1 nM | – | –
CC[C@H](C)[C@H](NC(=O)[C@H](CC(C)C)NC(=O)[C@H](Cc1c[nH]c2ccccc12)NC(=O)[C@H](CC(=O)O)NC(=O)[C@@H](NC(=O)[C@H](Cc1ccccc1)NC(=O)[C@H](CCC(=O)O)NC(=O)[C@H](CCCCN)NC(=O)[C@H](C)NC(=O)[C@H](C)NC(=O)[C@H](CCCCN)NC(=O)[C@H](CCC(=O)O)NC(=O)[C@H](CC(=O)O)NC(=O)[C@H](CC(C)C)NC(=O)[C@H](CCC(N)=O)NC(=O)[C@H](CCC(N)=O)NC(=O)[C@@H](NC(=O)[C@@H](NC(=O)[C@H](CC(=O)O)NC(=O)[C@H](CO)NC(=O)[C@@H](NC(=O)[C@H](Cc1ccccc1)NC(=O)[C@@H](NC(=O)CNC(=O)[C@H](CCC(=O)O)NC(=O)[C@H](C)NC(=O)[C@@H](N)Cc1c[nH]cn1)[C@@H](C)O)[C@@H](C)O)C(C)C)[C@@H](C)O)[C@@H](C)CC)C(=O)N[C@@H](CC(N)=O)C(=O)NCC(=O)NCC(=O)N1CCC[C@H]1C(=O)N[C@@H](CO)C(=O)N[C@@H](CCCCN)C(=O)N[C@@H](CCC(=O)O)C(=O)N[C@H](C(=O)N[C@H](C(=O)N[C@@H](CO)C(N)=O)[C@@H](C)CC)[C@@H](C)CC [compound 11] | 0.59 nM | – | –
HAEGTYTNDVTEYLEEKAAKEFIEWLIGKPKKIRYS-NH2 (C-terminus assumed) [compound 35] | – | 0.28 nM | –
HADGTYTSDVSSYLQDQAAKDFITWLKSGQPKPDAVETRSVDTL-NH2 [compound 49] | 415 nM | – | –
HAEGTFTSDVTQQLDEKAAKEFIDWLINGGPSSGAPPPS-NH2 (C-terminus assumed) [compound 9] | 0.28 nM | – | –
HGEGTYTNDVTQFLEEKAAKEFIDWLIKGKPKKQRLS-NH2 (C-terminus assumed) [compound 55] | 0.576 nM | – | –
HADGTFTNDMTSYLDAKAARDFVSWLARSDKS-NH2 [compound 52] | 382 nM | – | –
YADAPYISDVYSYLQDQVAKKWLKSGQD-NH2 [compound 51] | 971 nM | – | –
HAEGTFTSDVTQQLDEKAAKEFIDALINGGPSKEIIS-NH2 (C-terminus assumed) [compound 13] | 196 nM | 74 nM | –
HAEGTYTNDVTEYLEEKAAKFIEWLIKGKPKKIRYS-NH2 (C-terminus assumed) [compound 31] | – | 19 nM | –
HAEGTFTNDMTNYLEEKAAKEFVGWLIKGRS-NH2 (C-terminus assumed) [compound 6] | 1.23 nM | 1 nM | –
HAEGTYTNDVTEYLEEKAAKEFIEWLIN-NH2 (C-terminus assumed) [compound 24] | 0.85 nM | – | –
HAEGTFTSDVTQQLDEKAAKEFIDWLINPGSEGIKSI-NH2 (C-terminus assumed) [compound 14] | 18 nM | 18 nM | –
HAEGTYTNDVTEYLEEKAAKEFIEWLIKGPKKIRYS-NH2 (C-terminus assumed) [compound 36] | – | 0.36 nM | –
HAEGTYTNDVTEYLEEKAAKEFIEWLIKGKPKKIRY (also called nmGLP-1 analog) [SEQ ID NO 34] | – | – | GLP-1 cAMP (6-23) EC50 [3]: 0.095 nM; IC50 [4]: 15 nM
